Assay results: patent US20240083861A1, “HSD17B13 INHIBITORS AND USES THEREOF” (FL2022-001, Inc., priority 2020, published 2024)

Molecular target: T1, Recombinant human HSD17B13 enzyme (Homo sapiens, UniProt Q7Z5P4)
T1 sequence (Q7Z5P4 20-300): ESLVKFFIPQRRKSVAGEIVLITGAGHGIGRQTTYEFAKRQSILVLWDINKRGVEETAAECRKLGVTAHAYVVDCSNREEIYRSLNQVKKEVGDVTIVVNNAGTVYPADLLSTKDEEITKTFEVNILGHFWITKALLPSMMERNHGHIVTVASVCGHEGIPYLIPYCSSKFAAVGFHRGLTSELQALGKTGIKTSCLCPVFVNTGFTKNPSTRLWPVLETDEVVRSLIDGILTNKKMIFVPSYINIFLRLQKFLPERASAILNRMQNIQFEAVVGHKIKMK
Experiment: HSD17b13 NAD(P)H-Glo biochemical assay
Settings: for IC50: 50 uM estradiol, 1 mM NAD+, NAD(P)H-Glo luminescence, read-out: HSD17β13 IC50
Summary of the method: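 Luminescent NAD(P)H-Glo read-out, taken after 1 hour at RT, measured cofactor reduction. Substrate and cofactor were estradiol at 50 uM and NAD+ at 1 mM final, reacted with the recombinant human enzyme for 3 hours at 37° C in 20 mM Tris pH7.4, 0.002% Tween-20, 0.02% BSA. Compound was pre-incubated with enzyme for 20 minutes at RT.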

Row | SMILES | IC50 [nM] | inhibition at 10 µM (at 10 uM compound, read-out: HSD17β13 % inhibition at 10 uM) [%]
1 | Cn1nc(-c2cc(C(F)(F)F)c(F)c(O)c2F)c2ncc(N3CCN(S(C)(=O)=O)CC3)nc21 [Compound 12, 2,6-Difluoro-3-(1-methyl-6-(4-(methylsulfonyl)piperazin-1-yl)-1H-pyrazolo[3,4-b]pyrazin-3-yl)-5-(trifluoromethyl)phenol] | 100 to 1000 | –
2 | Cn1nc(-c2cc(C(F)(F)F)c(F)c(O)c2F)c2cnc(N3CCN(S(C)(=O)=O)CC3)nc21 [Compound 12.01, 2,6-Difluoro-3-(1-methyl-6-(4-(methylsulfonyl)piperazin-1-yl)-1H-pyrazolo[3,4-d]pyrimidin-3-yl)-5-(trifluoromethyl)phenol] | < 100 | –
3 | Cn1nc(-c2cc(C(F)(F)F)c(F)c(O)c2F)c2ccc(N3CCN(S(C)(=O)=O)CC3)nc21 [Compound 12.02, 2,6-Difluoro-3-(1-methyl-6-(4-(methylsulfonyl)piperazin-1-yl)-1H-pyrazolo[3,4-b]pyridin-3-yl)-5-(trifluoromethyl)phenol] | < 100 | –
4 | Cn1nc(-c2cc(C(F)(F)F)c(F)c(O)c2F)c2cnc(N3CCOCC34CC4)nc21 [Compound 12.03, 2,6-Difluoro-3-(1-methyl-6-(7-oxa-4-azaspiro[2.5]octan-4-yl)-1H-pyrazolo[3,4-d]pyrimidin-3-yl)-5-(trifluoromethyl)phenol] | < 100 | –
5 | CN(c1ncc2c(-c3cc(C(F)(F)F)c(F)c(O)c3F)nn(C)c2n1)C1CC1 [Compound 12.04, 3-(6-(Cyclopropyl(methyl)amino)-1-methyl-1H-pyrazolo[3,4-d]pyrimidin-3-yl)-2,6-difluoro-5-(trifluoromethyl)phenol] | < 100 | –
6 | Cn1nc(-c2cc(C(F)(F)F)c(F)c(O)c2F)c2cnc(N3CCN(S(C)(=O)=O)CC3)cc21 [Compound 12.05, 2,6-Difluoro-3-(1-methyl-6-(4-(methylsulfonyl)piperazin-1-yl)-1H-pyrazolo[4,3-c]pyridin-3-yl)-5-(trifluoromethyl)phenol] | < 100 | –
7 | Cn1nc(-c2ccc(Cl)c(O)c2F)c2cnc(N3CCN(S(C)(=O)=O)C4(CC4)C3)nc21 [Compound 12.06, 6-Chloro-2-fluoro-3-(1-methyl-6-(4-(methylsulfonyl)-4,7-diazaspiro[2.5]octan-7-yl)-1H-pyrazolo[3,4-d]pyrimidin-3-yl)phenol] | 100 to 1000 | –
8 | Cn1nc(-c2ccc(Cl)c(O)c2Cl)c2cnc(N3CCN(S(C)(=O)=O)C4(CC4)C3)nc21 [Compound 12.07, 2,6-Dichloro-3-(1-methyl-6-(4-(methylsulfonyl)-4,7-diazaspiro[2.5]octan-7-yl)-1H-pyrazolo[3,4-d]pyrimidin-3-yl)phenol] | 1000 to 30000 | –
9 | CN(c1ncc2c(-c3cc(C(F)(F)F)c(F)c(O)c3F)nn(C)c2c1Cl)C1CCOCC1 [Compound 12.08, 3-(7-Chloro-1-methyl-6-(methyl(tetrahydro-2H-pyran-4-yl)amino)-1H-pyrazolo[4,3-c]pyridin-3-yl)-2,6-difluoro-5-(trifluoromethyl)phenol] | < 100 | –
10 | Cn1nc(-c2cc(O)cc3ccccc23)c2cnc(N3CCN(S(C)(=O)=O)C4(CC4)C3)nc21 [Compound 12.09, 4-(1-Methyl-6-(4-(methylsulfonyl)-4,7-diazaspiro[2.5]octan-7-yl)-1H-pyrazolo[3,4-d]pyrimidin-3-yl)naphthalen-2-ol] | 1000 to 30000 | –
11 | Cn1nc(-c2cccc(O)c2)c2cnc(N3CCN(S(C)(=O)=O)C4(CC4)C3)nc21 [Compound 12.10, 3-(1-Methyl-6-(4-(methylsulfonyl)-4,7-diazaspiro[2.5]octan-7-yl)-1H-pyrazolo[3,4-d]pyrimidin-3-yl)phenol] | – | < 20
12 | CS(=O)(=O)N1CCC(c2cc3[nH]nc(-c4cc(C(F)(F)F)cc(O)c4F)c3cn2)CC1 [Compound 13, 2-Fluoro-3-(6-(1-(methylsulfonyl)piperidin-4-yl)-1H-pyrazolo[4,3-c]pyridin-3-yl)-5-(trifluoromethyl)phenol] | 100 to 1000 | –
13 | Cn1nc(-c2cc(C(F)(F)F)cc(O)c2F)c2cnc(C3CCN(S(C)(=O)=O)CC3)cc21 [Compound 13.01, 2-Fluoro-3-(1-methyl-6-(1-(methylsulfonyl)piperidin-4-yl)-1H-pyrazolo[4,3-c]pyridin-3-yl)-5-(trifluoromethyl)phenol] | 100 to 1000 | –
14 | CS(=O)(=O)N1CC=C(c2ccc3c(-c4cc(O)c(F)c(C(F)(F)F)c4)n[nH]c3c2)CC1 [Compound 14, 2-Fluoro-5-(6-(1-(methylsulfonyl)-1,2,3,6-tetrahydropyridin-4-yl)-1H-indazol-3-yl)-3-(trifluoromethyl)phenol] | 100 to 1000 | –
15 | Cn1nc(-c2cc(O)c(F)c(C(F)(F)F)c2)c2ccc(C3=CCN(S(C)(=O)=O)CC3)cc21 [Compound 14.01, 2-Fluoro-5-(1-methyl-6-(1-(methylsulfonyl)-1,2,3,6-tetrahydropyridin-4-y1)-1H-indazol-3-y1)-3-(trifluoromethyl)phenol] | < 100 | –
16 | Cc1cc(-c2n[nH]c3cc(C4=CCN(S(C)(=O)=O)CC4)ccc23)c(F)c(O)c1F [Compound 14.02, 2,6-Difluoro-3-methyl-5-(6-(1-(methylsulfonyl)-1,2,3,6-tetrahydropyridin-4-y1)-1H-indazol-3-y1)phenol] | < 100 | –
17 | CS(=O)(=O)N1CC=C(c2cc3[nH]nc(-c4cc(O)c(F)c(C(F)(F)F)c4)c3cn2)CC1 [Compound 14.03, 2-Fluoro-5-(6-(1-(methylsulfony1)-1,2,3,6-tetrahydropyridin-4-yl)-1H-pyrazolo[4,3-c]pyridin-3-yl)-3-(trifluoromethyl)phenol] | 100 to 1000 | –
18 | CS(=O)(=O)N1CCC(c2ccc3c(-c4cc(O)c(F)c(C(F)(F)F)c4)n[nH]c3c2)CC1 [Compound 15, 2-Fluoro-5-(6-(1-(methylsulfonyl)piperidin-4-yl)-1H-indazol-3-yl)-3-(trifluoromethyl)phenol] | 100 to 1000 | –
19 | Cc1cc(-c2n[nH]c3cc(C4CCN(S(C)(=O)=O)CC4)ccc23)c(F)c(O)c1F [Compound 15.01, 2,6-Difluoro-3-methyl-5-(6-(1-(methylsulfony1)piperidin-4-y1)-1H-indazol-3-yl)phenol] | < 100 | –
20 | Cn1nc(-c2cc(O)c(F)c(C(F)(F)F)c2)c2ccc(C3CCN(S(C)(=O)=O)CC3)cc21 [Compound 15.02, 2-Fluoro-5-(1-methyl-6-(1-(methylsulfonyl)piperidin-4-y1)-1H-indazol-3-yl)-3-(trifluoromethyl)phenol] | 100 to 1000 | –
21 | Cn1nc(-c2cc(C(F)(F)F)c(F)c(O)c2F)c2cnc(C3CCN(S(C)(=O)=O)CC3)cc21 [Compound 15.03, 2,6-Difluoro-3-(1-methyl-6-(1-(methylsulfony1)piperidin-4-y1)-1H-pyrazolo[4,3-c]pyridin-3-y1)-5-(trifluoromethyl)phenol] | 100 to 1000 | –
22 | Cn1nc(-c2cc(C(F)(F)F)c(F)c(O)c2F)c2cnc(C3CCN(S(C)(=O)=O)CC3)nc21 [Compound 15.04, 2,6-Difluoro-3-(1-methyl-6-(1-(methylsulfony1)piperidin-4-y1)-1H-pyrazolo[3,4-d]pyrimidin-3-yl)-5-(trifluoromethyl)phenol] | < 100 | –
23 | Oc1cc(-c2n[nH]c3cc(-c4ccc(O)c(Cl)c4)ccc23)ccc1F [Compound 16, 2-Chloro-4-(3-(4-fluoro-3-hydroxyphenyl)-1H-indazol-6-yl)phenol] | 100 to 1000 | –
24 | Cn1nc(-c2ccc(F)c(O)c2)c2ccc(-c3ccc(O)c(Cl)c3)cc21 [Compound 17, 2-Chloro-4-(3-(4-fluoro-3-hydroxyphenyl)-1-methyl-1H-indazol-6-yl)phenol] | 100 to 1000 | –
25 | Cn1nc(-c2cc(C(F)(F)F)c(F)c(O)c2F)c2cnc(N3CCOC4(CCC4)C3)nc21 [Compound 18, 2,6-Difluoro-3-(1-methyl-6-(5-oxa-8-azaspiro[3.5]nonan-8-yl)-1H-pyrazolo[3,4-d]pyrimidin-3-yl)-5-(trifluoromethyl)phenol] | < 100 | –
26 | Cn1nc(-c2cc(C(F)(F)F)c(F)c(O)c2F)c2cnc(N3CCOCC3CO)nc21 (stereo not drawn) [Compound 18.01, 2,6-Difluoro-3-(6-(3-(hydroxymethyl)morpholino)-1-methyl-1H-pyrazolo[3,4-d]pyrimidin-3-y1)-5-(trifluoromethyl)phenol] | < 100 | –
27 | Cn1nc(-c2cc(C(F)(F)F)c(F)c(O)c2F)c2cnc(N3CCOC(CO)C3)nc21 (stereo not drawn) [Compound 18.02, 2,6-Difluoro-3-(6-(2-(hydroxymethyl)morpholino)-1-methyl-1H-pyrazolo[3,4-d]pyrimidin-3-y1)-5-(trifluoromethyl)phenol] | 100 to 1000 | –
28 | COCC1COCCN1c1ncc2c(-c3cc(C(F)(F)F)c(F)c(O)c3F)nn(C)c2n1 (stereo not drawn) [Compound 18.03, 2,6-Difluoro-3-(6-(3-(methoxymethyl)morpholino)-1-methyl-1H-pyrazolo[3,4-d]pyrimidin-3-y1)-5-(trifluoromethyl)phenol] | < 100 | –
29 | Cn1nc(-c2cc(C(F)(F)F)c(F)c(O)c2F)c2cnc(N3CCC(O)CC3)nc21 [Compound 18.04, 1-(3-(2,4-Difluoro-3-hydroxy-5-(trifluoromethyl)phenyl)-1-methyl-1H-pyrazolo[3,4-d]pyrimidin-6-y1)piperidin-4-ol] | < 100 | –
30 | Cn1nc(-c2cc(C(F)(F)F)c(F)c(O)c2F)c2cnc(N3CCCC(O)C3)nc21 (stereo not drawn) [Compound 18.05, 1-(3-(2,4-Difluoro-3-hydroxy-5-(trifluoromethyl)phenyl)-1-methyl-1H-pyrazolo[3,4-d]pyrimidin-6-y1)piperidin-3-ol] | < 100 | –
